One experiment addresses human recombinant ATX (Homo sapiens, UniProt Q13822). Briefly: Enzyme inhibition test (choline release from LPC, Amplex UltraRed fluorescence). Format: biochemical. The note with it: 200 μM LPC substrate, 1 hr at room temperature, read-out: Experimental Example 1 human ATX IC50. Here is the method: [Enzyme Inhibition Test Method]
A mixture (10 μL) of substrate and a set of choline quantification reagents (200 μM LPC (1-Oleoyl-sn-glycero-3-phosphocholine Sigma #L1881), 25 μM Amplex UltraRed reagent (Invitrogen), 0.1 U/mL Peroxidase (TOYOBO), 1 U/mL Choline oxidase (TOYOBO)), prepared with assay buffer (50 mM Tris (pH 8.0), 140 mM NaCl, 5 mM KCl, 1 mM CaCl2, 1 mM MgCl2, 0.1% BSA (Albumin from bovine serum, SIGMA), 0.0025% Triton X-100), enzyme (0.4 ng/μL human recombinant ATX) (10 μL), compound-containing solution (100 nL) were dispensed to a 384-well plate, incubated at room temperature for 1 hr and the fluorescence (Ex. 525 nm/Em. 598 nm) was measured. As the standard, choline chloride was used. With a blank free of enzyme was taken as inhibitory rate 100%, and a control free of inhibitor as inhibitory rate 0%, the inhibitory rate was calculated, and IC50 value was calculated from the inhibitory activity percentage at each concentration.

The target of a further experiment is T1, ATX activity in plasma (Rattus norvegicus, UniProt Q64610).
T1 construct: from tissue; host or cells: plasma of male Wistar rats after oral dosing
Nature of the experiment: Measurement of ATX activity in plasma (ex vivo), rat single administration test. Also noted: species or system male Wistar rat. Here is the method: [Measurement of ATX Activity in Plasma (Ex Vivo)]
A compound administration solution prepared by wet pulverization in a mixer mill (type: MM400) for 10 min and adjusting to a given concentration with 0.5% aqueous carboxymethylcellulose solution was orally administered to male Wistar rat (5-week-old when used) at 5 mL/kg. Blood samples were collected from the cervical vein over time at 8 to 24 hr after administration. The blood was heparin-treated using a micro blood collection tube Capiject (CJ-AL, TERUMO CORPORATION), and the plasma was separated by centrifugation (4° C., 12,000 rpm, for 2 min), and preserved at −80° C. The rats after blood sampling were euthanized by exsanguination from the caudal vena cava under isoflurane inhalation anesthesia. The measurement of ATX activity in plasma was evaluated using the concentration of choline in the plasma, which was liberated from lysophosphatidylcholine (substrate of ATX) by the lysophospholipase D activity of ATX, as an index. An equal amount of 2× assay buffer (200 mM Tris-HCl pH9.0, 10 mM MgCl2, 1 M NaCl, 0.1% Triton X-100) is added to plasma (12 μL) and reacted at 37° C. for 6 hr. The reaction mixture (10 μL) after reaction for 6 hr and 45 μL of reagent R^1 solution (100 mM Tris-HCl pH 8.0, 0.5 mM TOOS, 10 U/mL peroxidase, 0.01% Triton X-100) were added and blended and absorbance at 550-700 nm was measured and used as a prevalue. As the standard, choline chloride was used. 1 mM choline chloride was diluted with 2× assay buffer up to 7 steps in 2-fold serial dilution, R^1 solution was treated similarly and the absorbance was measured. Furthermore, 15 μL of reagent R^2 solution (100 mM Tris-HCl pH 8.0, 1 mM 4-aminoantipyrine, 10 U/mL choline oxidase, 0.01% Triton X-100) was added, and the mixture was reacted at room temperature for 10 min, and absorbance at 550-700 nm was measured. The choline concentration per reaction time was calculated from the difference between the absorbance after R^2 solution addition and prevalue measured before R^2 addition and used as ATX activity value. inhibitory activity (%)=100×{1−[choline concentration (μM) of test substance administration group/choline concentration (μM) of solvent control group]} <calculating formula>

Experimental findings from patent US11958812B2, “3, 5-disubstituted pyridine and 3, 5-disubstituted pyridazine derivatives and pharmaceutical use of same” (MITSUBISHI TANABE PHARMA CORPORATION, priority 2018, dated 2024) are described below.

As a reminder, the IC50 is the point on the concentration scale where inhibition reaches its midpoint.

As for `O=C(O)c1ccc2c(c1)CCN2c1cncc(OC[C@H]2CC[C@H](C(F)(F)F)CC2)c1` [Example 12, 1-(5-{[trans-4-(trifluoromethyl)cyclohexyl]methoxy}pyridin-3-yl)-2,3-dihydro-1H-indole-5-carboxylic Acid], the IC50 on human recombinant ATX was 1 nM. Further, on ATX activity in plasma, the “Experimental Example 2 Rat single administration test (inhibitory activity (%) 8 hr after 1 mg/kg oral administration)” value amounted to 76%.
The corresponding values for `O=C(O)CC[C@H]1CN(c2cncc(OCc3ccc(OC(F)(F)F)cc3)c2)CCO1` [Example 14, 3-[(2S)-4-(5-{[4-(trifluoromethoxy)benzyl]oxy}pyridin-3-yl)morpholin-2-yl]propanoic Acid] are 12 nM and 92%.
The corresponding values for `O=C(O)CC[C@H]1CN(c2cncc(OCc3ccc(C(F)(F)F)cc3)c2)CCO1` [Example 15, 3-[(2S)-4-(5-{[4-(trifluoromethyl)benzyl]oxy}pyridin-3-yl)morpholin-2-yl]propanoic Acid] are 42 nM and 75%.
The corresponding values for `O=C(O)CC[C@H]1CN(c2cncc(OC[C@H]3CC[C@H](C(F)(F)F)CC3)c2)CCO1` [Example 16, 3-[(2S)-4-(5-{[trans-4-(trifluoromethyl)cyclohexyl]methoxy}pyridin-3-yl)morpholin-2-yl]propanoic Acid] are 13 nM and 89%.
For `O=C(O)/C=C/C[C@@H]1COCCN1c1cncc(OCc2ccc(OC(F)(F)F)cc2)c1` [Example 22-1, (2E)-4-[(3R)-4-(5-{[4-(trifluoromethoxy)benzyl]oxy}pyridin-3-yl)morpholin-3-yl]-2-butenoic Acid], the IC50 on human recombinant ATX came out at 3 nM. Besides, at ATX activity in plasma, the “Experimental Example 2 Rat single administration test (inhibitory activity (%) 8 hr after 1 mg/kg oral administration)” value was 83%.
For the molecule `O=C(O)CCCC1CCCN1c1cncc(OCc2ccc(OC(F)(F)F)cc2)c1` (centres unmarked) [Example 23, 4-[1-(5-{[4-(trifluoromethoxy)benzyl]oxy}pyridin-3-yl)pyrrolidin-2-yl]butanoic Acid], the IC50 at human recombinant ATX came out at 11 nM. The “Experimental Example 2 Rat single administration test (inhibitory activity (%) 8 hr after 1 mg/kg oral administration)” value on ATX activity in plasma is on record as 83%.
For `COc1ccc(-c2cnnc(OCc3ccc(OC(F)(F)F)cc3)c2)nc1[C@H]1C[C@@H]1C(=O)O` [Example 25], the IC50 on human recombinant ATX is 1 nM. Also, the “Experimental Example 2 Rat single administration test (inhibitory activity (%) 8 hr after 1 mg/kg oral administration)” value at ATX activity in plasma is recorded as 91%.
The corresponding values for `COc1ccc(-c2cncc(OCc3ccc(OC(F)(F)F)cc3)c2)nc1[C@H]1C[C@@H]1C(=O)O` [Example 26] are 5 nM and 82%.
The corresponding values for `COc1ccc(-c2cncc(OCc3ccc(C(F)(F)F)cc3)c2)nc1[C@H]1C[C@@H]1C(=O)O` [Example 29] are 3 nM and 80%.
For `COc1ccc(-c2cnnc(OCc3ccc(OC(F)(F)F)cc3)c2)cc1C1CC1C(=O)O` (centres unmarked) [Example 31], the IC50 at human recombinant ATX was 4 nM. The “Experimental Example 2 Rat single administration test (inhibitory activity (%) 8 hr after 1 mg/kg oral administration)” value at ATX activity in plasma was found to be 90%.
The corresponding values for `O=C(O)c1ccc2c(c1)CCN2c1cncc(OCC2CCN(CC(F)(F)F)CC2)c1` [Example 39] are 7 nM and 84%.
The corresponding values for `O=C(O)c1ccc(C2CN(c3cncc(OC[C@H]4CC[C@H](C(F)(F)F)CC4)c3)CCO2)cc1` (some centres unmarked) [Example 45] are 7 nM and 81%.
Turning to `COc1cc(C2CN(c3cncc(OC[C@H]4CC[C@H](C(F)(F)F)CC4)c3)CCO2)ccc1C(=O)O` (some centres unmarked) [Example 46], at human recombinant ATX, the IC50 turned out to be 2 nM. Moreover, the “Experimental Example 2 Rat single administration test (inhibitory activity (%) 8 hr after 1 mg/kg oral administration)” value on ATX activity in plasma amounted to 74%.
As for `O=C(O)CC[C@H]1CN(c2cncc(OCc3ccc(OC(F)(F)F)cc3F)c2)CCO1` [Example 82], the IC50 on human recombinant ATX was determined as 19 nM. In addition, the “Experimental Example 2 Rat single administration test (inhibitory activity (%) 8 hr after 1 mg/kg oral administration)” value on ATX activity in plasma is recorded as 89%.
The corresponding values for `Cc1cc(OC(F)(F)F)ccc1COc1cncc(N2CCO[C@@H](CCC(=O)O)C2)c1` [Example 83] are 8 nM and 89%.
The corresponding values for `O=C(O)CC[C@H]1CN(c2cncc(OCc3ccc(OC(F)(F)F)c(F)c3)c2)CCO1` [Example 84] are 21 nM and 89%.
`C[C@@H]1CN(c2cncc(OCc3ccc(OC(F)(F)F)cc3)c2)C[C@H](CCC(=O)O)O1` [Example 87]: the IC50 on human recombinant ATX was determined as 16 nM. Further, on ATX activity in plasma, the “Experimental Example 2 Rat single administration test (inhibitory activity (%) 8 hr after 1 mg/kg oral administration)” value is 95%.
The corresponding values for `O=C(O)CC1CCCN(c2cncc(OCc3ccc(OC(F)(F)F)cc3)c2)C1` (centres unmarked) [Example 92] are 57 nM and 73%.
The corresponding values for `O=C(O)CCC1CN(c2cncc(OCc3ccc(OC(F)(F)F)cc3)c2)CCN1CC(F)(F)F` (centres unmarked) [Example 93] are 39 nM and 70%.
